Results as given in PMC12527922, “Cocaine chemogenetics blunts drug-seeking by synthetic physiology” (Nature, 2025).
Several values for one entry are separate records, joined by “and”; a condition that tells them apart may be missing. Equal entries are not always repeated.

Legend:
[1] = test system: hippocampal neurons expressing GFP; assay: Current-clamp of control cultured hippocampal neurons expressing GFP; format: cell-based, rat; settings: GFP; 3 uM relative to PRE; unlabelled mean line
unmodified α7–5HT3 = biological target: T1, unmodified α7–5HT3 (UniProt P23979+P36544, M226I/T225I); assay: Membrane potential assay, unmodified α7–5HT3; format: cell-based, human α7 nAChR LBD, mouse 5HT3 IPD; settings: a7-5Ht3; for Max normalized AVG: AVG of DR 1-3; for Max normalized, single replicate: relative to ACh max of the DR
T1 construct: expressed in transfected cells; host or cells: HEK293 (ATCC CRL-1573), pcDNA3.1

unmodified α7–GlyR = biological target: T2, unmodified α7–GlyR (Homo sapiens, UniProt P23415+P36544); assay: Membrane potential assay, unmodified α7–GlyR; format: cell-based; settings: a7-GlyR
T2 construct: expressed in transfected cells; host or cells: HEK293 (ATCC CRL-1573), pcDNA3.1

[2] = biological target: T3, coca-GlyR (α7(L141G,G175K,Y217F)–GlyR) (Homo sapiens, UniProt P23415+P36544, G175K/L141G/Y217F); assay: Membrane potential assay, coca-GlyR in HEK293; format: cell-based; settings: coca-GlyR; for Max normalized AVG: AVG of DRs
T3 construct: expressed in transfected cells; host or cells: HEK293 (ATCC CRL-1573), pcDNA3.1

[3] = test system: coca-5HT3 in cultured hippocampal neurons; assay: Current-clamp of cultured hippocampal neurons expressing coca-5HT3; format: cell-based, rat; settings: coca-5HT3; coc (3 uM) relative to pre; unlabelled mean line
[4] = biological target: coca-5HT3 (α7(L141G,G175K,Y210F,Y217F)–5HT3) (Homo sapiens, UniProt P36544, G175K/L141G/Y210F/Y217F); assay: Membrane potential assay, coca-5HT3 in HEK293; settings: coca-5HT3; for Max normalized AVG: AVG of DRs
Chain of coca-5HT3 (α7(L141G,G175K,Y210F,Y217F)–5HT3) (P36544 23-224 L141G/G175K/Y210F/Y217F): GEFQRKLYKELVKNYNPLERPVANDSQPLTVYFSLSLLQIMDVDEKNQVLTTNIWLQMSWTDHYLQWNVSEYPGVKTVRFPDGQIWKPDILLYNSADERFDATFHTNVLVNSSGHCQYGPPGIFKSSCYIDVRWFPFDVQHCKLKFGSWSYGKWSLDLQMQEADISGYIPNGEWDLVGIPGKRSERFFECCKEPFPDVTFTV
Chain of coca-5HT3 (α7(L141G,G175K,Y210F,Y217F)–5HT3) (P23979 242-489, further chain): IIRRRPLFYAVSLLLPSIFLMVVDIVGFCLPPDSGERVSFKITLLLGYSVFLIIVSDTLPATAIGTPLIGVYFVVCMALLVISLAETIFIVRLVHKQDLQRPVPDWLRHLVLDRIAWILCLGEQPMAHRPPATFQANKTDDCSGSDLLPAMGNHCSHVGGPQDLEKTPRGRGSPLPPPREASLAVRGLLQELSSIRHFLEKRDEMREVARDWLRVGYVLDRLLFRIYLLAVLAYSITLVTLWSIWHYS

T3 sequence (P36544+P23415 fused P36544:L141G/P36544:G175K/P36544:Y217F): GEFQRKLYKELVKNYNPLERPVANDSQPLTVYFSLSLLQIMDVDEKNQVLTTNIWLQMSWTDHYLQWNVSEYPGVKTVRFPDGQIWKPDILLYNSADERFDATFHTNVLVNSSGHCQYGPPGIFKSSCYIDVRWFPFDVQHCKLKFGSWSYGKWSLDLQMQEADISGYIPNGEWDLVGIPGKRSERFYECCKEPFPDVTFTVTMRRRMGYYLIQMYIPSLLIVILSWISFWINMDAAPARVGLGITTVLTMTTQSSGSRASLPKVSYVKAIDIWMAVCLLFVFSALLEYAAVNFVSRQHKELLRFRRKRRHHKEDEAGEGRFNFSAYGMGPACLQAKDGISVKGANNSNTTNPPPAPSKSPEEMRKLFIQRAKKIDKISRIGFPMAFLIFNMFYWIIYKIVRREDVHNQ
T2 sequence (P36544+P23415 fused): as the sequence (P36544+P23415 fused P36544:L141G/P36544:G175K/P36544:Y217F) above, with G119L, K153G, F195Y counted along it
T1 sequence (P36544+P23979 fused P36544:T225I/P36544:M226I): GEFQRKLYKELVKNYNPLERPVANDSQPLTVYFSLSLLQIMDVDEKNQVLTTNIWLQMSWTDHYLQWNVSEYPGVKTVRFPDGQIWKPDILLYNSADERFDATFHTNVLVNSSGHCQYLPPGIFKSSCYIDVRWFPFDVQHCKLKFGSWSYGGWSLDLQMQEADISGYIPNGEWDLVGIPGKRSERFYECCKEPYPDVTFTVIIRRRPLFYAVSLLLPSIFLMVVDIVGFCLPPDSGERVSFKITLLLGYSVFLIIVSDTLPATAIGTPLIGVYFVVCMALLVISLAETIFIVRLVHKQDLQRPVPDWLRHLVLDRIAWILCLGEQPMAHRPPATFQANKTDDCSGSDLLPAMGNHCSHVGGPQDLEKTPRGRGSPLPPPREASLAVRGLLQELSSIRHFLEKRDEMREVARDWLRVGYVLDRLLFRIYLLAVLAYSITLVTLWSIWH

For `COC(=O)[C@H]1[C@@H](OC(=O)c2ccccc2)C[C@@H]2CC[C@H]1N2C` [coc], the “Rheobase Normalized, mean of cells” value [1] was 1.094, the “DR response, single replicate” value (unmodified α7–5HT3; concentration 0.0457247) was 0.035 and 0.029 and 0.04 and the “Max normalized AVG” value (unmodified α7–5HT3; concentration 0.0457247) was 0.03558. For the same compound, the “Max normalized, single replicate” value (unmodified α7–5HT3; concentration 0.0457247) was 0.02736 and 0.03711 and 0.04227, the “DR response, single replicate” value (unmodified α7–5HT3; concentration 0.137174) was 0.031 and 0.062 and 0.034 and the “Max normalized AVG” value (unmodified α7–5HT3; concentration 0.137174) was 0.04249. The “Max normalized, single replicate” value (unmodified α7–5HT3; concentration 0.137174) was 0.05849 and 0.03154 and 0.03744, the “DR response, single replicate” value (unmodified α7–5HT3; concentration 0.411523) was 0.023 and 0.07 and 0.034 and the “Max normalized AVG” value (unmodified α7–5HT3; concentration 0.411523) was 0.04179. The “Max normalized, single replicate” value (unmodified α7–5HT3; concentration 0.411523) was 0.06604 and 0.03154 and 0.02778, the “DR response, single replicate” value (unmodified α7–5HT3; concentration 1.23457) was 0.031 and 0.038 and 0.043 and the “Max normalized AVG” value (unmodified α7–5HT3; concentration 1.23457) was 0.03773. The “Max normalized, single replicate” value (unmodified α7–5HT3; concentration 1.23457) was 0.03585 and 0.03989 and 0.03744, the “DR response, single replicate” value (unmodified α7–5HT3; concentration 3.7037) was 0.019 and 0.031 and 0.039 and the “Max normalized AVG” value (unmodified α7–5HT3; concentration 3.7037) was 0.02946. The “Max normalized, single replicate” value (unmodified α7–5HT3; concentration 3.7037) was 0.02925 and 0.03618 and 0.02295, the “DR response, single replicate” value (unmodified α7–5HT3; concentration 11.1111) was 0.036 and 0.037 and 0.017 and the “Max normalized AVG” value (unmodified α7–5HT3; concentration 11.1111) was 0.03138. For the same compound, the “Max normalized, single replicate” value (unmodified α7–5HT3; concentration 11.1111) was 0.03491 and 0.01577 and 0.04348, the “DR response, single replicate” value (unmodified α7–5HT3; concentration 33.3333) was 0.037 and 0.071 and 0.05 and the “Max normalized AVG” value (unmodified α7–5HT3; concentration 33.3333) was 0.05268. For the same compound, the “Max normalized, single replicate” value (unmodified α7–5HT3; concentration 33.3333) was 0.06698 and 0.04638 and 0.04469, the “DR response, single replicate” value (unmodified α7–5HT3; concentration 100) was 0.055 and 0.086 and 0.089 and the “Max normalized AVG” value (unmodified α7–5HT3; concentration 100) was 0.07671. For the same compound, the “Max normalized, single replicate” value (unmodified α7–5HT3; concentration 100) was 0.08113 and 0.08256 and 0.06643, the “DR response, single replicate” value (unmodified α7–GlyR; concentration 0.0457247) was 0.05 and 0.083 and 0.071 and the “DR response, single replicate” value (unmodified α7–GlyR; concentration 0.137174) was 0.031 and 0.061 and 0.045. For the same compound, the “DR response, single replicate” value (unmodified α7–GlyR; concentration 0.411523) was 0.036 and 0.075 and 0.045, the “DR response, single replicate” value (unmodified α7–GlyR; concentration 1.23457) was 0.032 and 0.049 and 0.043 and the “DR response, single replicate” value (unmodified α7–GlyR; concentration 3.7037) was 0.027 and 0.033 and 0.028. The “DR response, single replicate” value (unmodified α7–GlyR; concentration 11.1111) was 0.032 and 0.038 and 0.034, the “DR response, single replicate” value (unmodified α7–GlyR; concentration 33.3333) was 0.046 and 0.052 and 0.049 and the “DR response, single replicate” value (unmodified α7–GlyR; concentration 100) was 0.053 and 0.079 (2×). For the same compound, the “DR response, single replicate” value ([2]; [coc] 0.0137174) was 0.056 and 0.038 and 0.023 and 0.039 and 0.008 and 0.041, the “Max normalized, single replicate” value ([2]; [coc] 0.0137174) was 0.03823 and 0.06336 and 0.05409 and 0.0128 and 0.05758 and 0.03944 and the “Max normalized AVG” value ([2]; [coc] 0.0137174) was 0.03793. For the same compound, the “DR response, single replicate” value ([2]; [coc] 0.0411523) was 0.06 and 0.037 and 0.017 and 0.078 and 0.025 and 0.015 and 0.049, the “Max normalized, single replicate” value ([2]; [coc] 0.0411523) was 0.03722 and 0.04683 and 0.05159 and 0.03467 and 0.024 and 0.06882 and 0.04225 and the “Max normalized AVG” value ([2]; [coc] 0.0411523) was 0.04363. The “DR response, single replicate” value ([2]; [coc] 0.123457) was 0.034 (2×) and 0.037 and 0.031 and 0.077 and 0.02 and 0.024, the “Max normalized, single replicate” value ([2]; [coc] 0.123457) was 0.03722 and 0.0854 and 0.05093 and 0.02774 and 0.0384 and 0.04775 and 0.02394 and the “Max normalized AVG” value ([2]; [coc] 0.123457) was 0.04448. For the same compound, the “DR response, single replicate” value ([2]; [coc] 0.37037) was 0.097 and 0.151 and 0.076 and 0.133 and 0.062 and 0.045 and 0.065, the “Max normalized, single replicate” value ([2]; [coc] 0.37037) was 0.1519 and 0.2094 and 0.08796 and 0.08599 and 0.072 and 0.09129 and 0.06831 and the “Max normalized AVG” value ([2]; [coc] 0.37037) was 0.1095. The “DR response, single replicate” value ([2]; [coc] 1.11111) was 0.511 and 0.61 and 0.222 and 1.095 and 0.27 and 0.244 and 0.282, the “Max normalized, single replicate” value ([2]; [coc] 1.11111) was 0.6137 and 0.6116 and 0.7242 and 0.3745 and 0.3904 and 0.3961 and 0.3599 and the “Max normalized AVG” value ([2]; [coc] 1.11111) was 0.4958. The “DR response, single replicate” value ([2]; [coc] 3.33333) was 1.226 and 0.859 and 0.343 and 1.133 and 0.644 and 0.538 and 0.653, the “Max normalized, single replicate” value ([2]; [coc] 3.33333) was 0.8642 and 0.9449 and 0.7493 and 0.8932 and 0.8608 and 0.9171 and 0.8634 and the “Max normalized AVG” value ([2]; [coc] 3.33333) was 0.8704. For the same compound, the “DR response, single replicate” value ([2]; [coc] 10) was 1.42 and 0.941 and 1.448 and 0.721 and 0.62 and 0.712, the “Max normalized, single replicate” value ([2]; [coc] 10) was 0.9467 and 1 (4×) and 0.9577 and 0.992 and the “Max normalized AVG” value ([2]; [coc] 10) was 0.9852. The “DR response, single replicate” value ([2]; [coc] 30) was 1.327 and 0.994 and 1.512 and 0.592 and 0.625, the “Max normalized, single replicate” value ([2]; [coc] 30) was 1 (3×) and 0.8211 and 0.9345 and the “Max normalized AVG” value ([2]; [coc] 30) was 0.9511. For the same compound, the “max (DR response of the replicate)” value ([2]; largest response of each DR) was 1.42 and 0.994 and 0.363 and 1.512 and 0.721 and 0.625 and 0.712, the “Rheobase Normalized, mean of cells” value [3] was 0.5604 and the “DR response, single replicate” value ([4]; [coc] 0.0137174) was 0.067 and 0.015 and 0.01 and 0.009 and 0.046 and 0.1 and 0.014. The “Max normalized, single replicate” value ([4]; [coc] 0.0137174) was 0.01571 and 0.04202 and 0.03502 and 0.04968 and 0.07513 and 0.01777 and 0.06549, the “Max normalized AVG” value ([4]; [coc] 0.0137174) was 0.04297 and the “DR response, single replicate” value ([4]; [coc] 0.0411523) was 0.051 and 0.054 and 0.011 and 0.02 and 0.076 and 0.06 and 0.008 and 0.009. The “Max normalized, single replicate” value ([4]; [coc] 0.0411523) was 0.05654 and 0.04622 and 0.07782 and 0.08207 and 0.04508 and 0.01015 and 0.007098 and 0.04985, the “Max normalized AVG” value ([4]; [coc] 0.0411523) was 0.04686 and the “DR response, single replicate” value ([4]; [coc] 0.123457) was 0.063 and 0.015 and 0.01 and 0.013 (2×) and 0.056 and 0.037 and 0.035. For the same compound, the “Max normalized, single replicate” value ([4]; [coc] 0.123457) was 0.01571 and 0.04202 and 0.05058 and 0.06048 and 0.0278 and 0.04442 and 0.01025 and 0.06158, the “Max normalized AVG” value ([4]; [coc] 0.123457) was 0.0391 and the “DR response, single replicate” value ([4]; [coc] 0.37037) was 0.098 and 0.161 and 0.012 and 0.019 and 0.144 and 0.109 and 0.122 and 0.014. For the same compound, the “Max normalized, single replicate” value ([4]; [coc] 0.37037) was 0.1686 and 0.05042 and 0.07393 and 0.1555 and 0.08189 and 0.1548 and 0.01104 and 0.0958, the “Max normalized AVG” value ([4]; [coc] 0.37037) was 0.099 and the “DR response, single replicate” value ([4]; [coc] 1.11111) was 0.363 and 0.54 and 0.108 and 0.033 and 0.699 and 0.66 and 0.506 and 0.355. For the same compound, the “Max normalized, single replicate” value ([4]; [coc] 1.11111) was 0.5654 and 0.4538 and 0.1284 and 0.7549 and 0.4959 and 0.6421 and 0.28 and 0.3548, the “Max normalized AVG” value ([4]; [coc] 1.11111) was 0.4594 and the “DR response, single replicate” value ([4]; [coc] 3.33333) was 0.825 and 0.861 and 0.191 and 0.144 and 0.926 and 1.093 and 0.788 and 0.762. For the same compound, the “Max normalized, single replicate” value ([4]; [coc] 3.33333) was 0.9016 and 0.8025 and 0.5603 and 1 (2×) and 0.8212 and 0.6009 and 0.8065, the “Max normalized AVG” value ([4]; [coc] 3.33333) was 0.8116 and the “DR response, single replicate” value ([4]; [coc] 10) was 1.023 and 0.955 and 0.229 and 0.257 and 0.908 and 1.331 and 0.736 and 1.159. The “Max normalized, single replicate” value ([4]; [coc] 10) was 1 (4×) and 0.9622 and 0.9806 and 0.934 and 0.914, the “Max normalized AVG” value ([4]; [coc] 10) was 0.9738 and the “DR response, single replicate” value ([4]; [coc] 30) was 0.864 and 0.903 and 0.238 and 0.251 and 1.268. The “Max normalized, single replicate” value ([4]; [coc] 30) was 0.9456 and 1 (2×) and 0.9767 and 0.8446, the “Max normalized AVG” value ([4]; [coc] 30) was 0.9534 and the “max (DR response of the replicate)” value ([4]; largest response of each DR) was 1.023 and 0.955 and 0.238 and 0.257 and 0.926 and 1.331 and 0.788 and 1.268.
